{"source": "patent US20160015771A1", "about": "“METHOD OF TREATING OPTIC NERVE DAMAGE, OPHTHALMIC ISCHEMIA OR OPHTHALMIC REPERFUSION INJURY” (Curonz Holdings Company Limited, priority 2012, published 2016)", "key": {"[1]": {"tested_on": "ischemia-related optic nerve injury", "conditions": "topically or intraperitoneal (IP) applied formulations; cited from earlier work"}, "[2]": {"tested_on": "Retinal Ganglion Cells (RGC)", "experiment": "Retinal ganglion cell (RGC) survival by BRN3A staining of flat-mounted retinae after optic nerve ligation/reperfusion", "assay_type": "in vivo, Male Long-Evans rats", "conditions": "8 days after injury", "description": "Ischemia was maintained for 45 minutes.\nAt the end of the study, the animals were euthanized by intraperitoneal injection of overdosed pentobarbital. After euthanasia at day 8 after optic nerve ligation injury, the retinae of both eyes of N=6 animals per cohort were fixed in formalin 4% (1 h at room temperature), dissected and flat-mounted. The flat-mounted preparation was incubated with an Alexa 594 conjugated anti-BRN3A (Brain-specific homeobox/POU domain protein 3A, Chemicon, cat #mAb1585) to visualize the Retinal Ganglion Cells (RGC). Fluorescence was assessed by an Apotome microscope at magnification×20 (Zeiss) within twelve randomly selected respective microscopic fields per subject. The number of surviving RGC was determined with Axio Vision 4.2 software in the respective retinae areas.\nAnimals were sacrificed at day 8 and retinae were analysed for BrN3A (Brain-specific homeobox/POU domain protein 3A) protein expression patterns that are specific for retinal ganglion cells (RGCs). 12 fields per retina were evaluated."}}, "data": [{"compound": "Brc1c(NC2=NCCN2)ccc2nccnc12", "note": "[Brimonidine]", "values": [{"measurement": "neuroprotective activity", "setting": "[1]", "result": "neuroprotective"}, {"measurement": "total RGCs rescued", "setting": "[2]; relative to non-ischemic eyes, saline group 19.6%", "result": 39.6, "unit": "%"}, {"measurement": "RGC density", "setting": "[2]; Brimonidine prophylactically applied, 1 mg/kg IP 1 h before ischemia, n=5, non-ischemic eyes 2158 RGCs/mm2", "result": "855.5±30.7", "unit": "RGCs/mm2"}]}]}
